The values below come from patent publication US20260226084A1, “DUAL RAF AND TUBULIN INHIBITORS AND METHODS OF USE THEREOF” (Deciphera Pharmaceuticals, LLC, priority 2023, published 2026).

The target in test [1] is T1, B-Raf kinase (SEQ ID NO: 1) (Homo sapiens, UniProt P15056).
T1 construct: GST (N); purchased Sigma
The test can be described thus: Biochemical Assay for B-Raf (coupled pyruvate kinase/lactate dehydrogenase assay). The settings on record: 1 mM ATP; read-out: BRAF (inhibition of biochemical activity, IC50).

The target of test [2] is T2, C-Raf kinase (SEQ ID NO: 2) (Homo sapiens, UniProt P04049, Y340D/Y341D).
T2 construct: C-Raf residues 306-end; Y340D, Y341D with; GST (N); purchased Sigma
T2 sequence (P04049 307-648 Y340D/Y341D): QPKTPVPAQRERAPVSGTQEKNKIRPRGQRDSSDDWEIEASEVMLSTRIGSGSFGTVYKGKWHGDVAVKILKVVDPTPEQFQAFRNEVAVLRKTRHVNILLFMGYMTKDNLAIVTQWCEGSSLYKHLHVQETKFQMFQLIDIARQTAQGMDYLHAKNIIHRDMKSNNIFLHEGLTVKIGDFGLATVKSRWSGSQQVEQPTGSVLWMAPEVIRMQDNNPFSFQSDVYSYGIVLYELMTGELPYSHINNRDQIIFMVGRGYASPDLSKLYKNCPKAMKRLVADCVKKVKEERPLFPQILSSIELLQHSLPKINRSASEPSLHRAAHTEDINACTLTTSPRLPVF
In words: Biochemical Assay for C-Raf (coupled pyruvate kinase/lactate dehydrogenase assay). The conditions noted are these: 1 mM ATP; read-out: CRAF (inhibition of biochemical activity, IC50).

In the next test the test system is MiaPaca-2 cells. In words: MiaPaca-2 Cell Proliferation Assay. The settings on record: Homo sapiens, MIA PaCa-2, MiaPaca-2 cells; Table 2; read-out: Inhibition of cell proliferation in MiaPaca-2 (IC50 class). It is filed as cell-based. An outline of the steps: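 Viability was read as resazurin fluorescence (540 nm excitation, 600 nm emission) after 5–6 h with dye. Compounds were tested as serial dilutions in triplicate, with IC50 derived from the dose–response.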

Another test deals with HCT-116 cells. In words: HCT-116 Cell Proliferation Assay. The settings on record: Homo sapiens, HCT-116, HCT-116 cells; Table 2; read-out: Inhibition of cell proliferation in HCT-116 (IC50 class). It is filed as cell-based. In a few lines: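 HCT-116 cells, 375/well in McCoy's 5A with 10% FBS, exposed to serial compound dilutions in triplicate for 67 to 72 hours at 37 °C. Viability read by resazurin fluorescence (ex 540/em 600 nm) after a further 4 to 5 h; IC50 values calculated.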

The subject of another test is HPAF-II cells. The test can be described thus: HPAF-II Cell Proliferation Assay. The settings on record: Homo sapiens, HPAF-II, HPAF-II cells; Table 2; read-out: Inhibition of cell proliferation in HPAF-II (IC50 class). It is filed as cell-based. In a few lines:
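HPAF-II cells (750/well) in complete MEM with 10% FBS were exposed to serially diluted compound in triplicate for 115–120 h at 37 °C, 5% CO2. Resazurin was then added for 18–24 h more; fluorescence (ex 540/em 600 nm) gave IC50.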

For the next test, the system named is Pa16c cells. The test can be described thus: Pa16c Cell Proliferation Assay. It is filed as cell-based. The conditions noted are these: Table 2, read-out: Inhibition of cell proliferation in Pa16c (IC50 class). In a few lines:
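Mouse Pa16c cells, 750/well in DMEM with 10% FBS, exposed to serially diluted compound in triplicate for 67 to 72 h at 37° C. Viability read by resazurin reduction over a further 18 to 24 h (ex 540/em 600 nm). IC50 calculated from the dose-response.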

T1 sequence (P15056 416-766): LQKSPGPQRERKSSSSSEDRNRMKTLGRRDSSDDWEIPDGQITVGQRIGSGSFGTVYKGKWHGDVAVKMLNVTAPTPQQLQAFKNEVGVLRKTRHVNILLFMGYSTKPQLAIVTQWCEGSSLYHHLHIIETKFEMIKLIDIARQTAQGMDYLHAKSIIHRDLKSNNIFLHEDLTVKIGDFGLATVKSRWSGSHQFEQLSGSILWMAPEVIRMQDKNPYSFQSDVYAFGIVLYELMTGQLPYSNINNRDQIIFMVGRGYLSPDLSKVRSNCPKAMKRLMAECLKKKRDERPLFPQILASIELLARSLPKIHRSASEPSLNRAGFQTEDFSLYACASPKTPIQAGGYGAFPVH

Turning to `Cc1ccc(NC(=O)c2cncc(C(C)(C)C#N)c2)cc1-c1cncc(-c2ccnc(NC(=O)C3CC3)c2)n1` [Example 108], the IC50 in test [1] was less than 100 nM; in test [2], less than 100 nM; with MiaPaca-2 cells, 100 to 500 nM; in the test on HCT-116 cells, less than 100 nM; in the test on HPAF-II cells, 100 to 500 nM; in the test on Pa16c cells, 1000 to 10000 nM.
Regarding `Cc1ccc(NC(=O)c2cncc(C(F)(F)F)c2)cc1-c1ccnc(-c2ccnc(NC(=O)C3CC3)c2)c1` [Example 78], the IC50 in test [1] is less than 100 nM; in test [2] it was less than 100 nM; in the test with MiaPaca-2 cells, 500 to 1000 nM; with HCT-116 cells, 100 to 500 nM; in the test with HPAF-II cells it was 100 to 500 nM; in the test on Pa16c cells, 1000 to 10000 nM.
`Cc1ccc(NC(=O)c2cc(C)c(C)nn2)cc1-c1ccnc(-c2ccnc(NC(=O)C3CC3)c2)c1` [Example 97]: the IC50 in test [1] is less than 100 nM; in test [2], less than 100 nM; in the test on MiaPaca-2 cells, 1000 to 10000 nM; with HCT-116 cells it was 1000 to 10000 nM; with HPAF-II cells, 1000 to 10000 nM; with Pa16c cells it was 1000 to 10000 nM.
For `Cc1ccc(NC(=O)c2cc(C3CC3)cnn2)cc1-c1cc(N[C@H](C)CO)nc(-c2cn[nH]c2)c1` [Example 117], the IC50 (in test [1]; in test [2]; in the test with MiaPaca-2 cells; in the test with HCT-116 cells; in the test with HPAF-II cells; in the test with Pa16c cells) was less than 100 nM in each case.
As to `Cc1ccc(NC(=O)c2cncc(C(F)(F)F)n2)cc1-c1cncc(-c2cc(NC(=O)C3CC3)ncn2)c1` [Example 61], the IC50 in test [1] was less than 100 nM; in test [2], less than 100 nM; in the test on MiaPaca-2 cells, 1000 to 10000 nM; in the test on HCT-116 cells, less than 100 nM; with HPAF-II cells, 1000 to 10000 nM; in the test with Pa16c cells, 1000 to 10000 nM.
Regarding `Cc1ccc(NC(=O)c2cc(C(C)(F)F)cnn2)cc1-c1cc(NCCO)nc(-c2ccnc(NC(=O)C3CC3)c2)c1` [Example 101], the IC50 in test [1] was less than 100 nM; in test [2], less than 100 nM; with MiaPaca-2 cells, 100 to 500 nM; with HCT-116 cells, less than 100 nM; with HPAF-II cells it was 100 to 500 nM; in the test with Pa16c cells, less than 100 nM.
Take `Cc1ccc(NC(=O)c2cccnn2)cc1-c1ccnc(-c2ccnc(NC(=O)C3CC3)c2)c1` [Example 83]: the IC50 in test [1] lay in the range of 1000 to 10000 nM; in test [2] it was 100 to 500 nM; in the test with MiaPaca-2 cells, 1000 to 10000 nM; in the test on HCT-116 cells, 1000 to 10000 nM; with HPAF-II cells it was 1000 to 10000 nM; in the test with Pa16c cells, 1000 to 10000 nM.
With `CNc1cc(-c2cc(NC(=O)c3cc(C(F)(F)F)cnn3)ccc2C)cc(-c2ccnc(NC(=O)C3CC3)c2)n1` [Example 118], the IC50 (in test [1]; in test [2]; with MiaPaca-2 cells; with HCT-116 cells; with HPAF-II cells; in the test on Pa16c cells) was less than 100 nM in each case.
For `Cc1ccc(NC(=O)c2cc(C(F)(F)F)cnn2)cc1-c1ccnc(-c2ccnc(NC(=O)C(F)(F)F)c2)c1` [Example 106], the IC50 in test [1] was 100 to 500 nM; in test [2], less than 100 nM; with MiaPaca-2 cells, less than 100 nM; with HCT-116 cells it was less than 100 nM; in the test on HPAF-II cells, less than 100 nM; in the test with Pa16c cells it was less than 100 nM.
In the case of `Cc1ccc(NC(=O)c2cc(P(C)(C)=O)cnn2)cc1-c1ccnc(-c2ccnc(NC(=O)C3CC3)c2)c1` [Example 111], the IC50 is less than 100 nM in test [1]; less than 100 nM in test [2]; 1000 to 10000 nM in the test with MiaPaca-2 cells; 1000 to 10000 nM in the test on HCT-116 cells; 1000 to 10000 nM in the test with HPAF-II cells; 1000 to 10000 nM in the test with Pa16c cells.
With `Cc1ccc(NC(=O)c2cc(C(F)(F)F)cnn2)cc1-c1ccnc(-c2cscn2)c1` [Example 142], the IC50 in test [1] was in the range of 500 to 1000 nM; in test [2], 500 to 1000 nM; in the test with MiaPaca-2 cells, 500 to 1000 nM; in the test on HCT-116 cells it was 100 to 500 nM; with HPAF-II cells, 100 to 500 nM; in the test on Pa16c cells, 100 to 500 nM.
